# In patent US11369648B2 (priority 2018, dated 2022):
# Entries after “also recorded” stand apart in the source; their conditions may differ.
# Tests used:
# influenza virus [1] = experiment: Effect on blood indexes (neutrophils, lymphocytes) of influenza mice; set-up: species or system ICR female mice; settings: mouse, in vivo
# antiviral protein MxA = format: in vivo, ICR female mice; settings: qPCR, GAPDH internal reference, 2^-ΔΔt, times that of the model group
# influenza virus [2] = experiment: Effect on body weight of influenza mice; format: in vivo, ICR female mice; settings: fourth day after challenge, bacteria 10^9 CFU intragastrically daily from two weeks before challenge, ribavirin intraperitoneally from second day
# influenza virus [3] = test system: influenza virus; set-up: species or system ICR female mice; settings: mouse, in vivo
# influenza virus [4] = experiment: Effect on viral load in lungs of influenza mice (qPCR); format: in vivo, ICR female mice
smiles,measurement,setting,value
"NC(=O)c1ncn([C@@H]2O[C@H](CO)[C@@H](O)[C@H]2O)n1 [Treatment, ribavirin]","lymphocytes, change compared with the blank control group (Control)",influenza virus [1],without significant differences
same,"neutrophils, change compared with the blank control group (Control)",influenza virus [1],without significant differences
same,"expression quantity of MxA in the lungs, relative to the model group (Model)",antiviral protein MxA,2.62 times
same,body weight decrease compared with the control group (Control),influenza virus [2],about 5%
same,"lung histopathology (inflammation, infiltration of inflammatory cells)",influenza virus [3],mild infiltration of inflammatory cells; also recorded: relatively mild inflammation; also recorded: some moderate and mild inflammation
same,reduction in viral load in the lungs (significance versus model group),"influenza virus [4]; mouse, in vivo",has significance
same,"viral load in the lungs, relative to the model group","influenza virus [4]; right lung, fifth day after challenge, qPCR, GAPDH internal reference, 2^-ΔΔt, % of that of the model group",38.03%
